Measured values from ChEMBL document CHEMBL6127052, “Discovery of membrane-targeting amphiphilic honokiol derivatives containing an oxazolethione moiety to combat methicillin-resistant Staphylococcus aureus (MRSA) infections” (Eur J Med Chem, 2024).
The source made the active and inactive calls. The rule behind the calls is not given here.

How the values were obtained:
[1] = Toxicity in sepsis BALB/c mouse model infected with methicillin-resistant Staphylococcus aureus clinical isolate M12 assessed as survival rate at 12 mg/kg, ip administered consecutively at 12 hr-interval for 7 days measured after 24 hrs post-last dose; type: organism-based; details: in vivo, 192 h, time 8 day
Staphylococcus aureus [2] = assay: Antibacterial activity against methicillin-resistant Staphylococcus aureus clinical isolate M12 infected in KM mouse assessed as reduction in TNF-alpha level at infection site at 5 mg/kg, sc measured after 24 hrs by ELISA; type: functional
[3] = Toxicity in KM mouse infected with methicillin-resistant Staphylococcus aureus clinical isolate M12 assessed as damage in kidney at 5 mg/kg, sc measured after 24 hrs by H and E staining based analysis; type: organism-based; details: in vivo
[4] = Toxicity in KM mouse infected with methicillin-resistant Staphylococcus aureus clinical isolate M12 assessed as damage in heart at 5 mg/kg, sc measured after 24 hrs by H and E staining based analysis; type: organism-based; details: in vivo
Staphylococcus aureus [5] = assay: (§1) Antibacterial activity against methicillin-resistant Staphylococcus aureus clinical isolate M12 infected in sepsis BALB/c mouse model assessed as decrease in pathological change in white medulla of spleen at 12 mg/kg, ip administered consecutively at 12 hr-interval for 24 hrs measured after 24 hrs post-last dose by H and E staining based analysis; type: functional, organism-based; details: time 48.0 hrs
Staphylococcus aureus [6] = assay: as §1, with “red” for “white”; type: functional, organism-based; details: time 48.0 hrs
[7] = Toxicity in KM mouse infected with methicillin-resistant Staphylococcus aureus clinical isolate M12 assessed as histopathological abnormality in kidney at 5 mg/kg, sc measured after 24 hrs by H and E staining based analysis; type: organism-based; details: in vivo
Staphylococcus aureus [8] = assay: Antibacterial activity against methicillin-resistant Staphylococcus aureus clinical isolate M12 infected in KM mouse assessed as decrease in bacterial load in skin tissues at 5 mg/kg, sc measured after 24 hrs by drop-plate counting method (reference value: 6.7); type: functional
[9] = Toxicity in KM mouse infected with methicillin-resistant Staphylococcus aureus clinical isolate M12 assessed as histopathological abnormality in lung at 5 mg/kg, sc measured after 24 hrs by H and E staining based analysis; type: organism-based; details: in vivo
[10] = Toxicity in KM mouse infected with methicillin-resistant Staphylococcus aureus clinical isolate M12 assessed as damage in spleen at 5 mg/kg, sc measured after 24 hrs by H and E staining based analysis; type: organism-based; details: in vivo
Staphylococcus aureus [11] = assay: Antibacterial activity against methicillin-resistant Staphylococcus aureus clinical isolate M12 infected in sepsis BALB/c mouse model assessed as decrease in bacterial load in kidney at 12 mg/kg, ip administered consecutively at 12 hr-interval for 24 hrs measured after 24 hrs post-last dose; type: functional; details: time 48 hrs
[12] = Toxicity in KM mouse infected with methicillin-resistant Staphylococcus aureus clinical isolate M12 assessed as damage in lung at 5 mg/kg, sc measured after 24 hrs by H and E staining based analysis; type: organism-based; details: in vivo
Staphylococcus aureus [13] = assay: as §1, with “necrosis” for “pathological change”, “hepatocytes” for “white medulla of spleen”; type: functional, organism-based; details: time 48.0 hrs
[14] = Toxicity in KM mouse infected with methicillin-resistant Staphylococcus aureus clinical isolate M12 assessed as damage in liver at 5 mg/kg, sc measured after 24 hrs by H and E staining based analysis; type: organism-based; details: in vivo
Staphylococcus aureus [15] = assay: as §1, with “degeneration” for “pathological change in white medulla”, “renal tubular epithelial cells” for “spleen”; type: functional, organism-based; details: time 48.0 hrs
Staphylococcus aureus [16] = assay: as §1, with “necrosis” for “pathological change”, “renal tubular epithelial cells” for “white medulla of spleen”; type: functional, organism-based; details: time 48.0 hrs
Staphylococcus aureus [17] = assay: Antibacterial activity against methicillin-resistant Staphylococcus aureus clinical isolate M12 infected in KM mouse assessed as decrease in erythematous pustules in intradermal tissues at 5 mg/kg, sc measured after 24 hrs; type: functional, organism-based
Staphylococcus aureus [18] = assay: Antibacterial activity against methicillin-resistant Staphylococcus aureus clinical isolate M12 infected in sepsis BALB/c mouse model assessed as decrease in bacterial load in liver at 12 mg/kg, ip administered consecutively at 12 hr-interval for 24 hrs measured after 24 hrs post-last dose; type: functional; details: time 48 hrs
[19] = Toxicity in KM mouse infected with methicillin-resistant Staphylococcus aureus clinical isolate M12 assessed as histopathological abnormality in liver at 5 mg/kg, sc measured after 24 hrs by H and E staining based analysis; type: organism-based; details: in vivo
Staphylococcus aureus [20] = assay: Antibacterial activity against methicillin-resistant Staphylococcus aureus clinical isolate M12 infected in KM mouse assessed as decrease in bacterial survival rate at 5 mg/kg, sc measured after 24 hrs by drop-plate counting method relative to control; type: functional
Staphylococcus aureus [21] = assay: Antibacterial activity against methicillin-resistant Staphylococcus aureus clinical isolate M12 infected in KM mouse assessed as reduction in IL-6 level at infection site at 5 mg/kg, sc measured after 24 hrs by ELISA; type: functional
[22] = Toxicity in KM mouse infected with methicillin-resistant Staphylococcus aureus clinical isolate M12 assessed as histopathological abnormality in heart at 5 mg/kg, sc measured after 24 hrs by H and E staining based analysis; type: organism-based; details: in vivo
[23] = Toxicity in KM mouse infected with methicillin-resistant Staphylococcus aureus clinical isolate M12 assessed as histopathological abnormality in spleen at 5 mg/kg, sc measured after 24 hrs by H and E staining based analysis; type: organism-based; details: in vivo
Staphylococcus aureus [24] = assay: as §1, with “degeneration” for “pathological change in white medulla”, “hepatocytes” for “spleen”; type: functional, organism-based; details: time 48.0 hrs
Staphylococcus aureus [25] = assay: Antibacterial activity against methicillin-resistant Staphylococcus aureus clinical isolate M12 infected in KM mouse assessed as decrease in erythematous pustules at infected skin on back of animal at 5 mg/kg, sc measured after 24 hrs; type: functional, organism-based
Staphylococcus aureus [26] = assay: Antibacterial activity against methicillin-resistant Staphylococcus aureus clinical isolate M12 infected in sepsis BALB/c mouse model assessed as decrease in bacterial load in spleen at 12 mg/kg, ip administered consecutively at 12 hr-interval for 24 hrs measured after 24 hrs post-last dose; type: functional; details: time 48 hrs

With `CN[C@H](CC(C)C)C(=O)N[C@H]1C(=O)N[C@@H](CC(N)=O)C(=O)N[C@H]2C(=O)N[C@H]3C(=O)N[C@H](C(=O)N[C@H](C(=O)O)c4cc(O)cc(O)c4-c4cc3ccc4O)[C@H](O)c3ccc(c(Cl)c3)Oc3cc2cc(c3O[C@@H]2O[C@H](CO)[C@@H](O)[C@H](O)[C@H]2O[C@H]2C[C@](C)(N)[C@H](O)[C@H](C)O2)Oc2ccc(cc2Cl)[C@H]1O` [VANCOMYCIN] the Survival [1] was 50%, the Activity (Staphylococcus aureus [2]) was 96.3 pg/mL and the Activity [3] was “Non-Toxic”. For the same molecule, the Activity [4] was “Non-Toxic”, the Activity (Staphylococcus aureus [5]) was “Active” and the Activity (Staphylococcus aureus [6]) was “Active”. For the same molecule, the Activity [7] was “Non-Toxic”, the Activity (Staphylococcus aureus [8]) was 1.4 log10CFU/g and the Activity [9] was “Non-Toxic”. The Activity [10] was “Non-Toxic”, the Activity (Staphylococcus aureus [11]) was 1.48 log10CFU/g and the Activity [12] was “Non-Toxic”. The Activity (Staphylococcus aureus [13]) was “Active”, the Activity [14] was “Non-Toxic” and the Activity (Staphylococcus aureus [15]) was “Active”. For the same molecule, the Activity (Staphylococcus aureus [16]) was “Active”, the Activity (Staphylococcus aureus [17]) was “inactive” and the Activity (Staphylococcus aureus [18]) was 1.62 log10CFU/g. For the same molecule, the Activity [19] was “Non-Toxic”, the Activity (Staphylococcus aureus [20]) was 93.33% and the Activity (Staphylococcus aureus [21]) was 56.5 pg/mL. For the same molecule, the Activity [22] was “Non-Toxic”, the Activity [23] was “Non-Toxic” and the Activity (Staphylococcus aureus [24]) was “Active”. The Activity (Staphylococcus aureus [25]) was “inactive” and the Activity (Staphylococcus aureus [26]) was 1.57 log10CFU/g.
